Patent US12398154B2, “Azaquinazoline pan-KRas inhibitors” (Mirati Therapeutics, Inc., priority 2020, dated 2025)
pIC50: −log10 of the molar value.

Key:
[1] = molecular target: KRas G12R (Homo sapiens, UniProt P01116, G12R); assay: biochemical;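 also: TR-FRET displacement assay of compound binding to KRas, read after one hour at room temperature, potency from a four-parameter fit of percent-of-control values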
Protocol: (§1) The ability of a compound to bind to KRas was measured using a TR-FRET displacement assay. […] After a 60-minute incubation at room temperature, the reaction was measured using a BMG LABTECH CLARIO star Plus via TR-FRET. […] The POC values were fit to a 4-parameter IC50 equation and the IC50 value reported.

[2] = molecular target: KRas G12V (Homo sapiens, UniProt P01116, G12V); assay: biochemical;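 also: KRas binding measured by TR-FRET displacement at room temperature, IC50 fitted from percent of control values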
Protocol: as §1

[3] = tested on: pERK in PSN1 cells; assay: Inhibition of KRas phosphorylation of ERK (Cisbio HTRF pERK assay); conditions: Homo sapiens, PSN1, 3 h, read-out: Inhibition (HTRF IC50) of KRas-mediated Phosphorylation of ERK, PSN1
Protocol: To harvest cells from flask using 0.05% Trypsin/EDTA solution. Add 10 mL of media to stop trypsinizing. Pipette the cells into a conical bottom 50 mL centrifuge tube and centrifuge 5 min×1000 rpm. • 2. Re-suspend the cell pellet in media, take a cell count, and then adjust the cell density using fresh media. • 3. Seed 6,000 cells into cell culture plate with 50 μL media. […] Incubate cell plate overnight in a 37° C., 5% CO2 incubator. • Compound titrations • 1. Use Tecan to complete the compound addition. Compounds start from 10 uM top, 3-fold dilution, and 10 doses. The final DMSO concentration is 0.8%. Dispensed 0.2 uM Trametinib as Min control. • 2. Incubate cell plate for 3 hrs in the incubator. • Detection with cisbio pERK HTRF kit • 1. […] At the end of the compound treatment, flick-off the media. • 3. Add 35 μL of lysis buffer per well using a Multidrop Combi. Then place on a plate agitator shaking at 300 rpm at 4° C. for 40 mins. • 4. Make up the HTRF antibody buffer. For each assay plate, mix 50 μL of d2-conjugate antibody with 950 μL of detection buffer. Similarly, mix 50 μL of Cryptate antibody with 950 μL of detection buffer. Then mix the two diluted antibodies together. • 5. Dispense 3.4 μL the antibody buffer to wells of an empty assay plate. Seal the plate and centrifuge plate 30 sec×1000 rpm. • 6. At the end of the 4° C. lysis, centrifuge the lysate plates 3 mins×1500 rpm. • 7. Use the Bravo to transfer 13.6 μL of lysate from cell culture plate to assay plate.
Then incubate assay plate for 2 hrs at room temperature. […] At the end of incubation, read plate on the Envision after centrifuging plate 30 sec× • 1000 rpm.

[4] = tested on: pERK in HCT116 cells; assay: as above; conditions: Homo sapiens, HCT-116, read-out: Inhibition (HTRF IC50) of KRas-mediated Phosphorylation of ERK, HCT116
[5] = tested on: pERK in MKN1 cells; assay: as above; conditions: Homo sapiens, MKN-1, 3 h, read-out: Inhibition (HTRF IC50) of KRas-mediated Phosphorylation of ERK, MKN1
[6] = tested on: pERK in ASPC1 cells; assay: as above; conditions: Homo sapiens, ASPC1, read-out: Inhibition (HTRF IC50) of KRas-mediated Phosphorylation of ERK, AsPC-1
[7] = tested on: pERK in H727 cells; assay: as above; conditions: Homo sapiens, NCI-H727, read-out: Inhibition (HTRF IC50) of KRas-mediated Phosphorylation of ERK, H727
[8] = tested on: pERK in H358 cells; assay: as above; conditions: Homo sapiens, NCI-H358, read-out: Inhibition (HTRF IC50) of KRas-mediated Phosphorylation of ERK, H358
[9] = molecular target: KRas G12D (Homo sapiens, UniProt P01116, G12D); assay: biochemical;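 also: TR-FRET displacement binding assay on KRas, read after a one-hour incubation at room temperature, IC50 fitted from percent-of-control values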
Protocol: as §1

[10] = tested on: pERK in H460 cells; assay: Inhibition of KRas phosphorylation of ERK (Cisbio HTRF pERK assay); conditions: Homo sapiens, NCI-H460, read-out: Inhibition (HTRF IC50) of KRas-mediated Phosphorylation of ERK, H460

Sequence of KRas G12D (P01116 1-169 isoform P01116-2 G12D): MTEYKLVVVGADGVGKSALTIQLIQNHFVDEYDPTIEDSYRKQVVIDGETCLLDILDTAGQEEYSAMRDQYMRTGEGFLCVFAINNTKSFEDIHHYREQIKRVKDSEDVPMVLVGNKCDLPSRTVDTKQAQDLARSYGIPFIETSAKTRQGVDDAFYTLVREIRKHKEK
Sequence of KRas G12R (P01116 1-169 isoform P01116-2 G12R): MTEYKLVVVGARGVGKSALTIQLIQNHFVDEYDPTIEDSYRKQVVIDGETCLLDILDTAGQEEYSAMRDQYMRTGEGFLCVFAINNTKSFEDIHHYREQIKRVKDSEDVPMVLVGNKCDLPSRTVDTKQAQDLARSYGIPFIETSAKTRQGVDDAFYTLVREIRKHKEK
Sequence of KRas G12V (P01116 1-169 isoform P01116-2 G12V): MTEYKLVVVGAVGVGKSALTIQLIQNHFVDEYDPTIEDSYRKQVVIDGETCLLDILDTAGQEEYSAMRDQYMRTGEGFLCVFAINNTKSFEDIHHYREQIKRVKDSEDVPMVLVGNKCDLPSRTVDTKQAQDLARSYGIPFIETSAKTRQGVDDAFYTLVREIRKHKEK

Row | Structure (SMILES) | pIC50 [1] | pIC50 [2] | pIC50 [3] | pIC50 [4] | pIC50 [5] | pIC50 [6] | pIC50 [7] | pIC50 [8] | pIC50 [9] | pIC50 [10]
1 | CCc1c(F)ccc2cc(O)cc(-c3ncc4c(N5CCC[C@@](C)(O)C5)nc(OCC(C)(C)CN(C)C)nc4c3F)c12 [Example 366, (R)-1-(2-(3-(dimethylamino)-2,2-dimethylpropoxy)-7-(8-ethyl-7-fluoro-3-hydroxynaphthalen-1-yl)-8-fluoropyrido[4,3-d]pyrimidin-4-yl)-3-methylpiperidin-3-ol] | 8.05 | 8.52 | 5.26 | 6.49 | 7.96 | 7.22 | 6.73 | 7.21 | 8.52 | 6.97
2 | C#Cc1c(F)ccc2cc(O)cc(-c3ncc4c(N5CCOCC(CO)C5)nc(OC[C@@]56CCCN5C[C@H](F)C6)nc4c3F)c12 (stereo partly drawn) [Example 391, 5-ethynyl-6-fluoro-4-(8-fluoro-2-(((2R,7aS)-2-fluorohexahydro-1H-pyrrolizin-7a-yl)methoxy)-4-(6-(hydroxymethyl)-1,4-oxazepan-4-yl)pyrido[4,3-d]pyrimidin-7-yl)naphthalen-2-ol] | ≥ 8.70 | ≥ 8.70 | 5.40 | 6.25 | 7.92 | 7.21 | 7.13 | 7.66 | ≥ 8.70 | 6.84
3 | O=S1(=O)NCC2(CCCN(c3nc(OC[C@@]45CCCN4C[C@H](F)C5)nc4c(F)c(-c5cc(O)cc6ccc(F)c(Br)c56)ncc34)C2)N1 (stereo partly drawn) [Example 411, 7-(7-(8-bromo-7-fluoro-3-hydroxynaphthalen-1-yl)-8-fluoro-2-(((2R,7aS)-2-fluorohexahydro-1H-pyrrolizin-7a-yl)methoxy)pyrido[4,3-d]pyrimidin-4-yl)-2-thia-1,3,7-triazaspiro[4.5]decane 2,2-dioxide] | ≥ 8.70 | ≥ 8.70 | 6.84 | 7.04 | 7.40 | 7.20 | 7.08 | 8.05 | ≥ 8.70 | 7.32
4 | CC1(O)COCCN(c2nc(OC[C@@]34CCCN3C[C@H](F)C4)nc3c(F)c(-c4cc(O)cc5ccc(F)c(Cl)c45)ncc23)C1 (stereo partly drawn) [Example 419, 4-(7-(8-chloro-7-fluoro-3-hydroxynaphthalen-1-yl)-8-fluoro-2-(((2R,7aS)-2-fluorohexahydro-1H-pyrrolizin-7a-yl)methoxy)pyrido[4,3-d]pyrimidin-4-yl)-6-methyl-1,4-oxazepan-6-ol] | 8.10 | 8.52 | 5.46 | 6.50 | 7.85 | 7.15 | 6.81 | 7.24 | 8.52 | 6.74
5 | CCc1cccc2cc(O)c(F)c(-c3ncc4c(N5CCC[C@@](C)(O)C5)nc(OC[C@@]56CCCN5C[C@H](F)C6)nc4c3F)c12 [Example 472, (3R)-1-(7-(8-ethyl-2-fluoro-3-hydroxynaphthalen-1-yl)-8-fluoro-2-(((2R,7aS)-2-fluorohexahydro-1H-pyrrolizin-7a-yl)methoxy)pyrido[4,3-d]pyrimidin-4-yl)-3-methylpiperidin-3-ol] | 7.74 | 7.80 | 5.03 | 5.97 | 7.10 | 7.05 | 6.39 | 6.64 | 8.22 | 6.38
6 | CCc1c(F)ccc2cc(O)cc(-c3ncc4c(N5CCCC6(CCSC6)C5)nc(OC[C@@]56CCCN5C[C@H](F)C6)nc4c3F)c12 (stereo partly drawn) [Example 476, 5-ethyl-6-fluoro-4-(8-fluoro-2-(((2R,7aS)-2-fluorotetrahydro-1H-pyrrolizin-7a(5H)-yl)methoxy)-4-(2-thia-7-azaspiro[4.5]decan-7-yl)pyrido[4,3-d]pyrimidin-7-yl)naphthalen-2-ol] | 8.40 | ≥ 8.70 | 5.44 | 6.56 | 7.85 | 7.44 | 6.83 | 7.46 | ≥ 8.70 | 7.00
